The values below are quoted from earlier work in patent publication US6989450B2 (priority 2000, dated 2006).

Broadly, the IC50 is the point on the concentration scale where inhibition reaches its midpoint.

Like-named read-outs stand apart in the source and are kept apart here.

In series [1] the test system is multidrug resistant cell lines.
Series [2] relates to P-glycoprotein expressing KBV-1 cells. Particulars: P-glycoprotein (MDR protein) expressing KBV-1 cells.
For series [3] the following is noted: water solubility; comparison with taxol.
Series [4] concerns the target microtubule, or polymeric, form of tubulin. The settings on record: binding to polymeric tubulin.

For the compound `C/C(=C\c1csc(C)n1)[C@@H]1C[C@@H]2O[C@@H]2CCC[C@H](C)[C@H](O)[C@@H](C)C(=O)C(C)(C)[C@@H](O)CC(=O)O1` [Epothilone A], in series [1], the “potency relative to Taxol” value is “thousand-fold more potent”.
Take `C/C(=C\c1csc(C)n1)[C@@H]1C[C@@H]2O[C@]2(C)CCC[C@H](C)[C@H](O)[C@@H](C)C(=O)C(C)(C)[C@@H](O)CC(=O)O1` [Epothilone B]: in series [2], the IC50 was 0.058 µM. In addition, the “potency relative to Taxol” value in series [1] (multidrug resistant cell lines / cancerous cells with acquired multiple drug resistance) is on record as “thousand-fold more active than Taxol”; in series [1] (multidrug resistant cell lines / cancerous cells with acquired multiple drug resistance, listed as 1), “thousand-fold more potent”. The solubility result in series [3] is given as “better solubility than taxol”.
With `CC(=O)O[C@H]1C(=O)[C@@]2(C)[C@H]([C@H](OC(=O)c3ccccc3)[C@]3(O)C[C@H](OC(=O)[C@H](O)[C@@H](NC(=O)c4ccccc4)c4ccccc4)C(C)=C1C3(C)C)[C@]1(OC(C)=O)CO[C@@H]1C[C@@H]2O` [Taxol], the IC50 in series [2] was 23 µM. For the same compound, the KD result in series [4] is given as “micromolar”.
